The record followed here is ChEMBL document CHEMBL1158575, “Glutarimide alkaloids and a terpenoid benzoquinone from Cordia globifera” (J Nat Prod, 2010).

One assay has as its system MOLT-3. The assay can be described thus: Cytotoxicity against human MOLT3 cells XTT assay. The class given is functional, cell-based.
The subject of another assay is HuCC-A1. The assay can be described thus: (§1) Cytotoxicity against human HuCCa1 cells MTT assay. It counts as functional, cell-based.
A further assay deals with A549. Description: Cytotoxicity against human A549 cells MTT assay. It counts as functional, cell-based.
Another assay has as its system HepG2. Description: Cytotoxicity against human HepG2 cells MTT assay. It counts as functional, cell-based.
The next assay concerns RAW264.7. Description: Inhibition of superoxide anion radical formation in mouse RAW264.7 cells by xanthine/xanthine oxidase assay. It counts as functional, cell-based.
A further assay deals with HL-60. The assay can be described thus: Suppression of TPA-induced superoxide anion generation in differentiated human HL60 cells at 100 uM. The class given is functional.
Assay [1] in a line: as §1. Conditions: HuCC-A1. The class given is functional, cell-based.

Calls of active or inactive are those of the source. The rule behind the calls is not given here.

Consider `CC(=O)N[C@H]1CCC(=O)N(CC(=O)c2ccccc2)C1=O` [CORDIARIMIDE A], for which the IC50 was 145 µM in the assay with MOLT-3 and 54.1 µM in the assay on RAW264.7. The result in the assay with HuCC-A1, with A549 and with HepG2 was inactive.

Regarding `CC(=O)N[C@H]1CCC(=O)N(C[C@H](O)c2ccccc2)C1=O` [CORDIARIMIDE B], the values for the IC50 in the assay on MOLT-3 and in the assay with RAW264.7 were 44.5 µM and 21.7 µM, respectively. In addition, the outcome in the assay with HuCC-A1, with A549 and in the assay with HepG2 was inactive. This molecule registered an Activity in the assay with HL-60 of 54%.

For `C[C@@]12CC3=C(C[C@H]1[C@]1(C)C[C@@H]1C2)C(=O)C=CC3=O` [GLOBIFERANE], the IC50 stood at 3.7 µM in the assay with MOLT-3, 66 µM in assay [1], 149 µM with A549 and 149 µM with HepG2.
